The source made the active and inactive calls. The calls are words filed in the database; no cut-off is given here.
Each compound was assayed on Mus musculus (assay: Anticarcinogenic activity in A/J mouse assessed as inhibition of Benzo(a)pyrene-induced tumorigenesis at 0.4 g/kg in diet for 21 days by mouse lung tumor inhibition study).
Assay type: functional, organism-based

Row | Compound | Activity
1 | CCCCCCCCOc1c(OC(=O)CCCCC)cc2c(=O)oc3c(OCCCCCCCC)c(OC(=O)CCCCC)cc4c(=O)oc1c2c34 | Active
2 | CC(=O)OC[C@H]1O[C@@H](Oc2c(OC(C)=O)cc3c(=O)oc4c(O[C@@H]5O[C@H](COC(C)=O)[C@@H](OC(C)=O)[C@H](OC(C)=O)[C@H]5OC(C)=O)c(OC(C)=O)cc5c(=O)oc2c3c45)[C@H](OC(C)=O)[C@@H](OC(C)=O)[C@@H]1OC(C)=O | Active
3 | O=c1oc2c(O)c(O)cc3c(=O)oc4c(O)c(O)cc1c4c23 | Active
